# Entries after “also recorded” stand apart in the source; their conditions may differ.
# How the values were obtained:
# Assay type in all cases: cell-based
# [1] = tested on: primary human epidermal keratinocytes; assay: Keratinocyte migration scratch assay; settings: 15% HKGS; E4 10^−10M and 10^−7M; compared with E2
# Method: Human skin was transferred to the laboratory in holding media (DMEM containing 4% penicillin-streptomycin and Amphotericin B solution) within 30 minutes of collection. Once defatted, the skin was rinsed in HBSS with 4% PSA followed by DPBS without antibiotics, then cut into thin strips and floated on 0.2% Dispase II in DPBS overnight at 4° C., followed by manual separation of the epidermis from the dermis. Primary human epidermal keratinocytes and primary human dermal fibroblasts were then isolated.
# (§1) Confluent wells of both primary keratinocytes and fibroblasts were subjected to a highly validated scratch wounding procedure (using a 1 mL sterile filter tip). Post-scratching, cells were rinsed with DPBS and cell-specific media containing treatments added to each well. Cells were imaged on a ptychographic live cell imaging platform (Livecyte 2™, Phasefocus) for 24-48 hours. Automated tracking of individual unlabeled cells will be combined with 3D cell measurements to quantify a range of wound-relevant cell parameters including scratch closure rate.
# (§2) Dose range finding experiments were conducted with E4 (10^−10M to 10^−6M) and E2 with and without Mitomycin C (MMC, to inhibit proliferation) using vehicle as negative controls.
# [2] = tested on: mouse lymphoma cell line L5178Y TK^+/−; assay: Generation of reactive oxygen species (ROS) in mouse lymphoma cells; settings: test item 1 to 3000 μM; 3 h exposure; vs vehicle control; three experiments
# Method: The objective of the study was to investigate the generation of reactive oxygen species (ROS) induced by the test item, estetrol (E4), in a mouse lymphoma cell line L5178Y TK^+/−.
# L5178Y TK^+/− cells in logarithmic phase of growth were plated in black 96 well cell culture plates at 1×10^4 cells in 90 μL of cell culture media. Controls and test item in triplicate were applied to the cells as a 10× concentrate in 10 μL of a 10% ethanol solution in PBS (final concentration of ethanol on plate was 1%). Cells were incubated for 3 hours at 37° C., 5% CO2, and the generation of ROS was evaluated by fluorescence with a ROS reagent: the ROS reagent was freshly prepared by dissolving one ampoule of reagent (50 μg) in 70 μL DMSO and further diluting this with 2.1 mL of pre-warmed PBS. 10 μL of ROS reagent was added to each well and the plate were shaken for 30 seconds in the dark. The plates were incubated approximately at 37° C., 5% CO2 for 1 h 30 min and fluorescence was read on a plate scanner with excitation at 492 nm and emission at 520 nm.
# human monocytes = assay: Immune cell polarization (qPCR of M1/M2 markers), human monocytes; settings: activated human monocytes; qPCR markers NOS2, ARG1
# Method: Immune cell polarization was evaluated in vitro using markers for M1/TH-1 (NOS2) and M2/TH-2 (ARG1) phenotype with human monocytes and mouse monocytes (BMDM bone marrow derived monocytes).
# Human blood was collected under national ethical approval with full informed written patient consent. Freshly isolated human blood was collected in EDTA vacutainer tubes, diluted 1:1 in PBS and gently layered onto histopaque (Merck). Tubes were immediately centrifuged at 100×g for 30 minutes and the whitish buffy layer formed at the histopaque interface aspirated and washed (centrifuged 100×g, 10 minutes) twice with sterile PBS. Untouched classical (CD14++, CD16−) monocytes were isolated from the washed buffy layer cells using the Miltenyi Classical Monocyte Isolation Kit, LS columns and a MidiMACs separator (Miltenyi). Isolated cells were seeded into tissue culture plates and stimulated to differentiate using PMA.
# An experiment was conducted to evaluate the anti-inflammatory effects of E4 or vehicle (negative control). qPCR methodology was used to assess the effects of E2 and E4 on immune cell polarization using well validated marker of pro-inflammatory (NOS2 for MI/TH-1 phenotype) and anti-inflammatory (ARG1 for ME/TH-2 phenotype) activity.
# mouse fibroblasts = assay: Fibroblast monolayer scratch assay, mouse fibroblasts; settings: mouse fibroblasts (female C57Bl/6); 10^−7M; pilot experiments
# Method: as §1, §2
# [3] = tested on: Normal Human Dermal Fibroblasts (NHDFs); assay: Colonization of a standard acellular area (IBIDI chamber gap closure) by fibroblasts; settings: vs ethanol control; for NHDF Migration (+MMC) (colonization of the acellular area): presence of MMC, 6 h and 24 h
# Method: The study consists in an in vitro assay aiming to evaluate the properties of E4 and E2 at 4 concentrations each on keratinocytes and fibroblasts. In this assay, the measurement of the colonization of a standard acellular surface generated from a confluent monolayer of cells using a dedicated culture device (IBIDI chamber) is performed. The assay is performed in absence and in presence of a proliferation inhibitor to focus on cell proliferation and migration or on migration only, respectively.
# Normal Human forskin-derived Dermal Fibroblats (NHDFs, ATCC) cells were grown in phenol-free Dulbecco's Modified Eagle Medium (DMEM, ThermoFisher Scientific) supplemented with 10% of Foetal Bovine Serum (FBS, ThermoFisher Scientific), L-glutamine and antibiotics. The cells were maintained in a humidified incubator at 37° C. with a 5% CO2 atmosphere.
# Cells were plated in 2-well silicone inserts with a defined cell free gap (IBIDI chambers; IBIDI GmbH, 80209) that was previously inserted on 12-well culture plates. This culture device allows to create a standardized 500 μm±100 μm cell free gap for monitoring cell colonization. 24 h after seeding, when the culture reached high confluency, cells in the insert were treated, or not, with mitomycin C (MMC) at 10 μg/ml during 2 h. After these 2 hours, the insert was removed, and cells were treated with E2 or E4 in presence or not of MMC for additional 2 h. Then, if appropriate, the culture medium was removed and cells were treated with E2 or E4 for 22 h, in absence of MMC.
# For the assay, keratinocytes were plated in Epilife medium without HKGS and all the treatments were performed in this medium. Fibroblasts were plated in DMEM medium containing only 2,5% of FBS and the treatments were performed in absence of FBS.
# E2 and E4 were applied at 4 concentrations each (10^−7M, 10^−8M, 10^−9M, 10^−10M). In parallel, cells were treated with a positive control (HKGS 1% for human keratinocytes and PDGF-BB at 10 ng/ml for human fibroblasts).
# To monitor cell colonization and to evaluate the gap closure rate, pictures of the gap were taken after different times: at time 0 h, corresponding to the beginning of the treatment with E2 or E4 and to the removal of the culture insert, at time 6 h and at time 24 h (corresponding to the end of the treatments with E2 or E4). Pictures were taken with a microscope Zeiss (Axiover 25-10× objective) and with a camera Invenio2EIII (DeltaPix—Lux-Optic). The colonized areas were quantified from the pictures by the use of the WimAsis platform—WimScratch software. For each insert, 3 pictures were taken at each time. As each condition was performed in triplicates, it means a total of 9 pictures per condition and per time point of acquisition
smiles,measurement,setting,value
"C[C@]12CC[C@@H]3c4ccc(O)cc4CC[C@H]3[C@@H]1[C@@H](O)[C@@H](O)[C@@H]2O [E4, 1,3,5 (10)-estratrien-3,15alpha,16alpha,17beta-tetrol]",impact on keratinocyte migration (wound closure),[1],higher than the impact of E2
same,levels of ROS,[2],dose-dependent decrease in the levels of ROS
same,immune cell polarization (monocyte subtype M1/M2),human monocytes,switch from monocyte subtype M1 (pro-inflammatory) to subtype M2 (healing)
same,fibroblast migration / in vitro wound closure,mouse fibroblasts,promotes in vitro wound closure to a similar extent as E2; also recorded: as effective as E2 in promoting fibroblast migration
same,NHDF Migration (+MMC) (colonization of the acellular area),[3]; 10^−7M,significantly increase the colonization of the acellular area; also recorded: significant activity
same,NHDF Migration (+MMC) (colonization of the acellular area),[3]; 10^−8M,significantly increase the colonization of the acellular area; also recorded: significant activity
same,"colonization of the cell-free area by NHDF, overall","[3]; absence of MMC, all four concentrations (10^−7M to 10^−10M)",not able to significantly increase the colonization of the cell-free area

# Reference: patent publication US20250325467A1, “COMPOSITIONS FOR PREVENTING OR TREATING SKIN AGING” (ESTETRA SRL, priority 2021, published 2025)
